Source: patent US20250353841A1 (BIOGEN MA INC., priority 2022, published 2025)
pIC50: −log10 of the molar value.

system: mutant Huntington (HTT) protein; experiment: HTT Mutant HTRF iPSC assay (mHTT protein lowering); assay type: cell-based; settings: human iPSC derived from a HTT patient with a poly-Q49 mutation

Structure (SMILES) | pIC50
Fc1cccc2sc(-c3cc(F)c4nc(C5CCNCC5)cn4c3)cc12 [Compound 43, 8-fluoro-6-(4-fluorobenzo[b]thiophen-2-yl)-2-(piperidin-4-yl)imidazo[1,2-a]pyridine] | 5.05 to 6.00
Cc1cn2nc(-c3cc(F)c4nc(NC(=O)CN5CCCCC5)cn4c3)cc(C)c2n1 [Compound 275, N-(6-(2,8-dimethylimidazo[1,2-b]pyridazin-6-yl)-8-fluoroimidazo[1,2-a]pyridin-2-yl)-2-(piperidin-1-yl)acetamide] | > 7.00
Cc1cn2cc(-c3cc(F)c4[nH]c(C5CCNCC5)nc4c3)cc(Cl)c2n1 [Compound 144, 5-(8-chloro-2-methylimidazo[1,2-a]pyridin-6-yl)-7-fluoro-2-(piperidin-4-yl)-1H-benzo[d]imidazole] | 5.05 to 6.00
Cc1cn2nc(-c3cc(F)c4nc([C@H]5[C@@H]6CN(C)C[C@@H]65)cn4c3)cc(C(F)(F)F)c2n1 [Compound 230, 6-(8-fluoro-2-((1R,5S,6r)-3-methyl-3-azabicyclo[3.1.0]hexan-6-yl)imidazo[1,2-a]pyridin-6-yl)-2-methyl-8-(trifluoromethyl)imidazo [1,2-b]pyridazine] | > 7.00
Cc1cn2nc(-c3cc(F)c4nc(N5CCC(N6CCCC6)CC5)oc4c3)cc(C)c2n1 [Compound 477, 6-(2,8-dimethylimidazo[1,2-b]pyridazin-6-yl)-4-fluoro-2-(4-(pyrrolidin-1-yl)piperidin-1-yl)benzo[d]oxazole] | 6.00 to 7.00
Cc1cn2nc(-c3cc(F)c4nn(C5CC6(CCNC6)C5)nc4c3)cc(C)c2n1 (stereo not drawn) [Compound 398, 6-(2,8-dimethylimidazo[1,2-b]pyridazin-6-yl)-4-fluoro-2-(6-azaspiro[3.4]octan-2-yl)-2H-benzo[d][1,2,3]triazole] | > 7.00
COCCN1CCC(Nc2nc3c(F)cc(-c4cc(C)c5nc(C)cn5n4)cc3o2)CC1 [Compound 480, 6-(2,8-dimethylimidazo[1,2-b]pyridazin-6-yl)-4-fluoro-N-(1-(2-methoxyethyl)piperidin-4-yl)benzo[d]oxazol-2-amine] | > 7.00
COc1cc(-c2cc(F)c3nc(NC(=O)C4CN(C(C)C)C4)cn3c2)nn2nc(C)nc12 [Compound 296, N-(8-fluoro-6-(8-methoxy-2-methyl-[1,2,4]triazolo[1,5-b]pyridazin-6-yl)imidazo[1,2-a]pyridin-2-yl)-1-isopropylazetidine-3-carboxamide] | > 7.00
COc1cc2cc(-c3cc(F)c4nc(C5CCNCC5)cn4c3)ccc2cn1 [Compound 164, 6-(8-fluoro-2-(piperidin-4-yl)imidazo[1,2-a]pyridin-6-yl)-3-methoxyisoquinoline] | 6.00 to 7.00
O=c1[nH]ncc2ccc(-c3cc(F)c4nc(C5CCNCC5)cn4c3)cc12 [Compound 58, 7-(8-fluoro-2-(piperidin-4-yl)imidazo[1,2-a]pyridin-6-yl)phthalazin-1(2H)-one] | 5.05 to 6.00
CCN1CCC(c2cn3cc(-c4cc(C)c5nc(C)cn5n4)cc(F)c3n2)CC1 [Compound 112, 6-(2-(1-ethylpiperidin-4-yl)-8-fluoroimidazo[1,2-a]pyridin-6-yl)-2,8-dimethylimidazo[1,2-b]pyridazine] | > 7.00
Cc1cn2nc(-c3cn4cc(C5CCNCC5)cc(F)c4n3)cc(C)c2n1 [Compound 131, 6-(8-fluoro-6-(piperidin-4-yl)imidazo[1,2-a]pyridin-2-yl)-2,8-dimethylimidazo[1,2-b]pyridazine] | 6.00 to 7.00
Cc1cn2nc(-c3cc(F)c4nc(N5CCC(N(C)C)CC5)oc4c3)cc2c(C)n1 [Compound 497, 1-(6-(4,6-dimethylpyrazolo[1,5-a]pyrazin-2-yl)-4-fluorobenzo[d]oxazol-2-yl)-N,N-dimethylpiperidin-4-amine] | 6.00 to 7.00
Cc1cn2nc(-c3cc(F)c4nc(C(=O)NC5CCNC6(CC6)C5)cn4c3)cc(C)c2n1 (single isomer, unassigned) [Compound 348] | 6.00 to 7.00
Cc1cn2nc(-c3cc(F)c4nc(NC(=O)C5CCNC(C)C5)nn4c3)cc(C)c2n1 (stereo not drawn) [Compound 322, N-(6-(2,8-dimethylimidazo[1,2-b]pyridazin-6-yl)-8-fluoro-[1,2,4]triazolo[1,5-a]pyridin-2-yl)-2-methylpiperidine-4-carboxamide] | 6.00 to 7.00
CCN1CCC(N(C)c2nc3cc(-c4cc(C)c5nc(C)cn5n4)cc(F)c3o2)CC1C [Compound 533, rel-5-(2,8-dimethylimidazo[1,2-b]pyridazin-6-yl)-N-((2S,4S)-1-ethyl-2-methylpiperidin-4-yl)-7-fluoro-N-methylbenzo[d]oxazol-2-amine] | 5.05 to 6.00
Cc1cn2nc(-c3cc(F)c4nc(C5CCNC6(CC6)C5)cn4c3)cc(C)c2n1 (stereo not drawn) [Compound 110, 6-(8-fluoro-2-(4-azaspiro[2.5]octan-7-yl)imidazo[1,2-a]pyridin-6-yl)-2,8-dimethylimidazo[1,2-b]pyridazine] | > 7.00
Cc1cn2nc(-c3cc(F)c4nc([C@H]5[C@@H]6CNC[C@@H]65)cn4c3)cc(C)c2n1 [Compound 161, 6-[2-[(1S,5R)-3-azabicyclo[3.1.0]hexan-6-yl]-8-fluoro-imidazo[1,2-a]pyridin-6-yl]-2,8-dimethyl-imidazo[1,2-b]pyridazine] | > 7.00

Structure (SMILES) | pIC50
COCCN1CCC(c2cn3cc(-c4cc(C)c5nc(C)cn5n4)cc(F)c3n2)CC1 [Compound 46, 6-[8-fluoro-2-[1-(2-methoxyethyl)-4-piperidyl]imidazo[1,2-a]pyridin-6-yl]-2,8-dimethyl-imidazo[1,2-b]pyridazine] | > 7.00
Cc1cn2nc(-c3cc(F)c4nc([C@@H]5C6CCN(C)CC65)cn4c3)cc(C)c2n1 (stereo partly drawn) [Compound 231, 6-(8-fluoro-2-((7R)-3-methyl-3-azabicyclo[4.1.0]heptan-7-yl)imidazo[1,2-a]pyridin-6-yl)-2,8-dimethylimidazo[1,2-b]pyridazine] | > 7.00
Fc1cc(-c2cccc3nonc23)cn2cc(C3CCNCC3)nc12 [Compound 48, 4-(8-fluoro-2-(piperidin-4-yl)imidazo[1,2-a]pyridin-6-yl)benzo[c][1,2,5]oxadiazole] | 5.05 to 6.00
Cc1cn2nc(-c3cc(F)c4nc(NC(=O)[C@H]5C[C@@H](N(C)C)C5)cn4c3)cc(C)c2n1 [Compound 289, (1s,3s)-3-(dimethylamino)-N-(6-(2,8-dimethylimidazo[1,2-b]pyridazin-6-yl)-8-fluoroimidazo[1,2-a]pyridin-2-yl)cyclobutane-1-carboxamide] | > 7.00
Cc1cn2nc(-c3cc(F)c4nc(C5(F)CCNCC5)cn4c3)cc(C)c2n1 [Compound 158, 6-(8-fluoro-2-(4-fluoropiperidin-4-yl)imidazo[1,2-a]pyridin-6-yl)-2,8-dimethylimidazo[1,2-b]pyridazine] | > 7.00
Cn1cc2cc(-c3cc(F)c4nc([C@@H]5CNCCO5)cn4c3)cc(F)c2n1 (single isomer, unassigned) [Compound 71] | 6.00 to 7.00
CCN1CCC(Nc2nc3c(F)cc(-c4cc(C)c5nc(C)cn5n4)cc3o2)CC1 [Compound 479, 6-(2,8-dimethylimidazo[1,2-b]pyridazin-6-yl)-N-(1-ethylpiperidin-4-yl)-4-fluorobenzo[d]oxazol-2-amine] | > 7.00
Cc1cn2nc(-c3cc(F)c4nc([C@H]5[C@@H]6CN(C)C[C@@H]65)cn4c3)cc(C(F)F)c2n1 [Compound 233, 8-(difluoromethyl)-6-(8-fluoro-2-((1R,5S,6r)-3-methyl-3-azabicyclo[3.1.0]hexan-6-yl)imidazo[1,2-a]pyridin-6-yl)-2-methylimidazo[1,2-b]pyridazine] | > 7.00
Cc1cn2nc(-c3cc(F)c4nc([C@H]5CCNC5)cn4c3)cc(C)c2n1 (single isomer, unassigned) [Compound 190] | 6.00 to 7.00
Cc1cn2cc(-c3cc(F)c4nc(C5CCNCC5)oc4c3)cc(C)c2n1 [Compound 155, 6-(2,8-dimethylimidazo[1,2-a]pyridin-6-yl)-4-fluoro-2-(piperidin-4-yl)benzo[d]oxazole] | 5.05 to 6.00
Cc1cn2nc(-c3cc(F)c4nc([C@H]5[C@@H]6CN(C)C[C@@H]65)cn4c3)cc(C)c2n1 [Compound 185, 6-[8-fluoro-2-[(1S,5R)-3-methyl-3-azabicyclo[3.1.0]hexan-6-yl]imidazo[1,2-a]pyridin-6-yl]-2,8-dimethyl-imidazo[1,2-b]pyridazine] | > 7.00
CNC12CCC(c3cn4cc(-c5cc(F)c6nn(C)cc6c5)cc(F)c4n3)(C1)C2 [Compound 77, 4-(8-fluoro-6-(7-fluoro-2-methyl-2H-indazol-5-yl)imidazo[1,2-a]pyridin-2-yl)-N-methylbicyclo[2.1.1] hexan-1-amine] | 5.05 to 6.00
Cc1cn2nc(-c3cc(F)c4nc(NC(=O)C5CN(C6CC6)C5)cn4c3)cc(C)c2n1 [Compound 265, 1-cyclopropyl-N-(6-(2,8-dimethylimidazo[1,2-b]pyridazin-6-yl)-8-fluoroimidazo[1,2-a]pyridin-2-yl)azetidine-3-carboxamide] | > 7.00
Cc1cn2nc(-c3cc(F)c4nc(CC5CNC5)cn4c3)cc(C)c2n1 [Compound 13, 6-(2-(azetidin-3-ylmethyl)-8-fluoroimidazo[1,2-a]pyridin-6-yl)-2,8-dimethylimidazo[1,2-b]pyridazine] | 6.00 to 7.00
Cc1cn2nc(-c3cc(F)c4nc(N5CCC6(CCN(C)CC6)C5)oc4c3)cc2c(C)n1 [Compound 499, 6-(4,6-dimethylpyrazolo[1,5-a]pyrazin-2-yl)-4-fluoro-2-(8-methyl-2,8-diazaspiro[4.5]decan-2-yl)benzo[d]oxazole] | 6.00 to 7.00
Cc1cn2nc(-c3ccc4nc(C5CCNCC5)cn4c3)cc(C)c2n1 [Compound 551, 2,8-dimethyl-6-[2-(4-piperidyl)imidazo[1,2-a]pyridin-6-yl]imidazo[1,2-b]pyridazine] | > 7.00
CCC(=O)N1CCC(c2cn3cc(-c4cc(C)c5nc(C)cn5n4)cc(F)c3n2)CC1 [Compound 120, 1-[4-[6-(2,8-dimethylimidazo[1,2-b]pyridazin-6-yl)-8-fluoro-imidazo[1,2-a]pyridin-2-yl]-1-piperidyl]propan-1-one] | 6.00 to 7.00
CN[C@H]1CCC[C@@H](c2cn3cc(-c4cc(F)c5nn(C)cc5c4)cc(F)c3n2)C1 (stereo in doubt) [Compound 163, rel-(1R,3S)-3-(8-fluoro-6-(7-fluoro-2-methyl-2H-indazol-5-yl)imidazo[1,2-a]pyridin-2-yl)-N-methylcyclohexan-1-amine] | 6.00 to 7.00
